Measurements from patent US10322106B2, “Combinations of amisulpride and another anti-emetic for treating nausea and vomiting” (Acacia Pharma Limited, priority 2015, dated 2019).

How the values were obtained:
[1] = tested on: cisplatin-induced emesis; conditions: ferrets; higher dosages; cited from earlier work
[2] = tested on: chemotherapy-induced nausea and vomiting (cisplatin or cyclophosphamide with epirubicin or doxorubicin); test: Study 2: randomised, double blind Phase II study of oral amisulpride for prevention of acute and delayed phase chemotherapy-induced nausea and vomiting; assay type: in vivo, human
Procedure: A randomised, double blind Phase II clinical study was conducted to characterise the dose-response of oral amisulpride for the prevention of acute and delayed phase nausea and vomiting in male and female patients. The patent population consisted of adult, chemotherapy-naïve cancer patients, receiving a first infusion of either cisplatin chemotherapy at a dose of 70 mg/m^2 or greater, or a combination of cyclophosphamide (500-1500 mg/m^2) and either epirubicin (60-100 mg/m^2) or doxorubicin (40-60 mg/m^2) for breast cancer. All patients received an intravenous injection of 20 mg of amisulpride (racemic mixture) and an intravenous injection of 8-16 mg ondansetron on the day of chemotherapy administration (i.e. day 1). The oral doses of amisulpride (racemic mixture) studied, along with placebo, were 10 mg, 20 mg or 40 mg each administered once per day on days 2-4 after chemotherapy. Specifically one capsule of amisulpride or its matching placebo, were taken as early as practically possible after waking of the patients each morning on days 2, 3 and 4. […] “Delayed phase response” means complete response (composite endpoint defined as no voting/retching and no use of rescue medication) in the period 24-120 hrs after chemo. There are other benefits of using a kit of the invention compared to three-drug regimen, such as reduced side-effects and better patient compliance.

[3] = tested on: cisplatin-induced nausea and vomiting; test: Study 1: open label, ascending dose Phase II study of intravenous amisulpride in the prevention of cisplatin-induced nausea and vomiting; assay type: in vivo, human
Procedure: This study was designed to find the optimum dose range of IV amisulpride for the kit and method of the invention. This was an open label, ascending dose, Phase II study to determine the minimum effective dose of intravenous amisulpride in the prevention of cisplatin-induced nausea and vomiting. The number of patients evaluated was 51. Doses of amisulpride (racemic mixture) administered were 2.5, 7.5 and 20 mg. A 20 mg dose of amisulpride was also administered with a standard dose of IV ondansetron.

[4] = oral 10 mg AMI days 2-4 after IV OND + 20 mg AMI day 1, all subjects
[5] = oral 10 mg AMI days 2-4 after IV OND + 20 mg AMI day 1, patients with acute phase CR
[6] = oral 20 mg AMI days 2-4 after IV OND + 20 mg AMI day 1, all subjects
[7] = oral 20 mg AMI days 2-4 after IV OND + 20 mg AMI day 1, patients with acute phase CR
[8] = oral 40 mg AMI days 2-4 after IV OND + 20 mg AMI day 1, all subjects
[9] = oral 40 mg AMI days 2-4 after IV OND + 20 mg AMI day 1, patients with acute phase CR

CCN1CCCC1CNC(=O)c1cc(S(=O)(=O)CC)c(N)cc1OC (racemic) [amisulpride]
inhibiting cisplatin-induced emesis, dose dependence in words [1]: less effective at higher dosages
Delayed phase response (complete response 24-120 hrs after chemo), in words ([2]; 10 mg oral amisulpride days 2-4, acute-phase responders): significantly better than placebo
CR, 0-120 h [2, 4]: 36%
CR, 0-120 h (number of subjects) [2, 4]: 21
CR, 24-120 h [2, 4]: 46%
CR, 24-120 h (number of subjects) [2, 4]: 27
Nausea, 0-120 h [2, 4]: 68%
Nausea, 0-120 h (number of subjects) [2, 4]: 40
Nausea, 24-120 h [2, 4]: 63%
Nausea, 24-120 h (number of subjects) [2, 4]: 37
Rescue medication use, 0-120 h [2, 4]: 54%
Rescue medication use, 0-120 h (number of subjects) [2, 4]: 32
Rescue medication use, 24-120 h [2, 4]: 41%
Rescue medication use, 24-120 h (number of subjects) [2, 4]: 26
Vomiting, 0-120 h [2, 4]: 59%
Vomiting, 0-120 h (number of subjects) [2, 4]: 35
Vomiting, 24-120 h [2, 4]: 46%
Vomiting, 24-120 h (number of subjects) [2, 4]: 27
CR, 24-120 h ([2]; oral 10 mg AMI days 2-4 after IV OND + 20 mg AMI day 1, all subjects, listed as AMI): 46%
CR, 24-120 h [2, 5]: 75%
CR, 24-120 h (number of subjects) [2, 5]: 21
Nausea, 24-120 h [2, 5]: 32%
Nausea, 24-120 h (number of subjects) [2, 5]: 9
Rescue medication use, 24-120 h [2, 5]: 14%
Rescue medication use, 24-120 h (number of subjects) [2, 5]: 4
Vomiting, 24-120 h [2, 5]: 21%
Vomiting, 24-120 h (number of subjects) [2, 5]: 6
CR, 0-120 h [2, 6]: 25%
CR, 0-120 h (number of subjects) [2, 6]: 17
CR, 24-120 h [2, 6]: 31%
CR, 24-120 h (number of subjects) [2, 6]: 21
Nausea, 0-120 h [2, 6]: 72%
Nausea, 0-120 h (number of subjects) [2, 6]: 48
Nausea, 24-120 h [2, 6]: 69%
Nausea, 24-120 h (number of subjects) [2, 6]: 46
Rescue medication use, 0-120 h [2, 6]: 55%
Rescue medication use, 0-120 h (number of subjects) [2, 6]: 37
Rescue medication use, 24-120 h [2, 6]: 54%
Rescue medication use, 24-120 h (number of subjects) [2, 6]: 36
Vomiting, 0-120 h [2, 6]: 70%
Vomiting, 0-120 h (number of subjects) [2, 6]: 47
Vomiting, 24-120 h [2, 6]: 55%
Vomiting, 24-120 h (number of subjects) [2, 6]: 37
CR, 24-120 h [2, 7]: 57%
CR, 24-120 h (number of subjects) [2, 7]: 17
Nausea, 24-120 h [2, 7]: 47%
Nausea, 24-120 h (number of subjects) [2, 7]: 14
Rescue medication use, 24-120 h [2, 7]: 23%
Rescue medication use, 24-120 h (number of subjects) [2, 7]: 7
Vomiting, 24-120 h [2, 7]: 43%
Vomiting, 24-120 h (number of subjects) [2, 7]: 13
CR, 0-120 h [2, 8]: 27%
CR, 0-120 h (number of subjects) [2, 8]: 17
CR, 24-120 h [2, 8]: 31%
CR, 24-120 h (number of subjects) [2, 8]: 20
Nausea, 0-120 h [2, 8]: 77%
Nausea, 0-120 h (number of subjects) [2, 8]: 49
Nausea, 24-120 h [2, 8]: 72%
Nausea, 24-120 h (number of subjects) [2, 8]: 46
Rescue medication use, 0-120 h [2, 8]: 58%
Rescue medication use, 0-120 h (number of subjects) [2, 8]: 37
Rescue medication use, 24-120 h [2, 8]: 56%
Rescue medication use, 24-120 h (number of subjects) [2, 8]: 36
Vomiting, 0-120 h [2, 8]: 66%
Vomiting, 0-120 h (number of subjects) [2, 8]: 42
Vomiting, 24-120 h [2, 8]: 58%
Vomiting, 24-120 h (number of subjects) [2, 8]: 37
CR, 24-120 h [2, 9]: 47%
CR, 24-120 h (number of subjects) [2, 9]: 17
Nausea, 24-120 h [2, 9]: 61%
Nausea, 24-120 h (number of subjects) [2, 9]: 22
Rescue medication use, 24-120 h [2, 9]: 36%
Rescue medication use, 24-120 h (number of subjects) [2, 9]: 13
Vomiting, 24-120 h [2, 9]: 47%
Vomiting, 24-120 h (number of subjects) [2, 9]: 17
No emesis (vomiting/retching) ([3]; 2.5 mg IV amisulpride): 0/5
No significant nausea ([3]; 2.5 mg IV amisulpride): 1/5
No emesis (vomiting/retching) ([3]; 7.5 mg IV amisulpride): 0/5
No significant nausea ([3]; 7.5 mg IV amisulpride): 1/5
No emesis (vomiting/retching) ([3]; 20 mg IV amisulpride): 3/18
No significant nausea ([3]; 20 mg IV amisulpride): 12/18
Protection from nausea, dose-relationship ([3]; IV amisulpride from 2.5 mg to 20 mg): positive dose-relationship
